Measured values taken from publication PMC4893628, “Chalcone-based Selective Inhibitors of a C4 Plant Key Enzyme as Novel Potential Herbicides” (Scientific Reports, 2016).
Where two headings read alike, the source gives them in different places.

Columns and labels:
Format in all cases: cell-based
[1] = test system: Pseudomonas putida KT2440; assay: Bacterial growth in microscale cultivation, P. putida; details: for activity at 5 µM / activity at 50 µM / activity at 500 µM: Pseudomonas putida; for Lag Phase: relative to control
Description: (§1) The following bacteria were cultivated in the presence of trans-chalcone derived inhibitors: Corynebacterium glutamicum ATCC13032[43], Escherichia coli K-12 MG1655[44], Pseudomonas putida KT2440[45], and Bacillus subtilis 168[46]. The growth of these bacteria was monitored in flower-well plates shaken at 1200 rpm as backscatter at 620 nm (gain 20) using a BioLector® microscale cultivation system (m2p labs, Baesweiler, Germany). For further experimental details please refer to the Supplementary Information.
(§2) medium or the appropriate minimal medium and shaken at 140 rpm overnight. For inoculation of
(§3) the main culture, cells equivalent to an optical density at 600 nm of 0.5 (C. glutamicum, E. coli,
(§4) and P. putida) or 0.25 (B. subtilis) in 800 µL medium were washed and resuspended in fresh
(§5) media. Inhibitor substances were dissolved in DMSO and added to the media to a final
(§6) Since the least polar trans-chalcone and 2’-hydroxychalcone precipitated in the growth media at
(§7) the highest concentrations, the maximal concentration of these compounds was reduced to 400
(§8) µM and 100 µM, respectively. The final backscatter at 620 nm, the growth rate (h-1), and the
(§9) duration of the lag phase of all cultures were determined in a BioLector microscale cultivation
(§10) system in comparison to negative controls supplemented with the solvent DMSO. A longer lag

[2] = test system: Escherichia coli K-12 MG1655; assay: Bacterial growth in microscale cultivation, E. coli; details: for activity at 5 µM / activity at 50 µM / activity at 500 µM: Escherichia coli; for Lag Phase: relative to control
Description: as §1, §2, §3, §4, §5, §6, §7, §8, §9, §10

Bacillus subtilis 168 = assay: Bacterial growth in microscale cultivation, B. subtilis; details: for Lag Phase: relative to control
Description: as §1, §2, §3, §4, §5, §6, §7, §8, §9, §10

[3] = test system: Corynebacterium glutamicum ATCC13032; assay: Bacterial growth in microscale cultivation, C. glutamicum; details: for activity at 5 µM / activity at 50 µM / activity at 500 µM / activity at 100 µM: Corynebacterium glutamicum; for Lag Phase: relative to control
Description: as §1, §2, §3, §4, §5, §6, §7, §8, §9, §10

O=C(/C=C/c1ccccc1)c1ccccc1O [Compound 2, 2′-Hydroxychalcone]
activity at 5 µM ([1]; KT2440, read-out: Final Backscatter, complex medium, 5 µM, relative to control): 98% | activity at 50 µM ([1]; KT2440, read-out: Final Backscatter, complex medium, 50 µM, relative to control): 101% | activity at 500 µM ([1]; KT2440, read-out: Final Backscatter, complex medium, 500 µM, relative to control): 102% | activity at 5 µM ([1]; KT2440, read-out: Final Backscatter, minimal medium, 5 µM, relative to control): 96.6% | activity at 50 µM ([1]; KT2440, read-out: Final Backscatter, minimal medium, 50 µM, relative to control): 98% | activity at 500 µM ([1]; KT2440, read-out: Final Backscatter, minimal medium, 500 µM, relative to control): 111% | activity at 5 µM ([1]; KT2440, read-out: Growth rate, complex medium, 5 µM, relative to control): 103% | activity at 50 µM ([1]; KT2440, read-out: Growth rate, complex medium, 50 µM, relative to control): 102% | activity at 500 µM ([1]; KT2440, read-out: Growth rate, complex medium, 500 µM, relative to control): 189% | activity at 5 µM ([1]; KT2440, read-out: Growth rate, minimal medium, 5 µM, relative to control): 96% | activity at 50 µM ([1]; KT2440, read-out: Growth rate, minimal medium, 50 µM, relative to control): 99.3% | activity at 500 µM ([1]; KT2440, read-out: Growth rate, minimal medium, 500 µM, relative to control): 153% | Lag Phase ([1]; complex medium, 5 µM): 101,0% | Lag Phase ([1]; complex medium, 50 µM): 102,6% | Lag Phase ([1]; complex medium, 500 µM): 110,8% | Lag Phase ([1]; minimal medium, 5 µM): 100,0% | Lag Phase ([1]; minimal medium, 50 µM): 100,6% | Lag Phase ([1]; minimal medium, 500 µM): 100,0% | activity at 5 µM ([2]; MG1655, read-out: Final Backscatter, complex medium, 5 µM, relative to control): 100% | activity at 50 µM ([2]; MG1655, read-out: Final Backscatter, complex medium, 50 µM, relative to control): 103% | activity at 500 µM ([2]; MG1655, read-out: Final Backscatter, complex medium, 500 µM, relative to control): 98.1% | activity at 5 µM ([2]; MG1655, read-out: Final Backscatter, minimal medium, 5 µM, relative to control): 100% | activity at 50 µM ([2]; MG1655, read-out: Final Backscatter, minimal medium, 50 µM, relative to control): 97% | activity at 500 µM ([2]; MG1655, read-out: Final Backscatter, minimal medium, 500 µM, relative to control): 101% | activity at 5 µM ([2]; MG1655, read-out: Growth rate, complex medium, 5 µM, relative to control): 97.7% | activity at 50 µM ([2]; MG1655, read-out: Growth rate, complex medium, 50 µM, relative to control): 86.6% | activity at 5 µM ([2]; MG1655, read-out: Growth rate, minimal medium, 5 µM, relative to control): 102% | activity at 50 µM ([2]; MG1655, read-out: Growth rate, minimal medium, 50 µM, relative to control): 105% | Lag Phase ([2]; complex medium, 5 µM): 95,5% | Lag Phase ([2]; complex medium, 50 µM): 100,0% | Lag Phase ([2]; minimal medium, 5 µM): 89,4% | Lag Phase ([2]; minimal medium, 50 µM): 91,6% | activity at 5 µM (Bacillus subtilis 168; Bacillus subtilis, 168, read-out: Final Backscatter, complex medium, 5 µM, relative to control): 96.4% | activity at 50 µM (Bacillus subtilis 168; Bacillus subtilis, 168, read-out: Final Backscatter, complex medium, 50 µM, relative to control): 97.6% | activity at 100 µM (Bacillus subtilis 168; Bacillus subtilis, 168, read-out: Final Backscatter, complex medium, 100 µM, relative to control): 112% | activity at 500 µM (Bacillus subtilis 168; Bacillus subtilis, 168, read-out: Final Backscatter, complex medium, 500 µM, relative to control): 75.6% | activity at 5 µM (Bacillus subtilis 168; Bacillus subtilis, 168, read-out: Final Backscatter, minimal medium, 5 µM, relative to control): 97.9% | activity at 50 µM (Bacillus subtilis 168; Bacillus subtilis, 168, read-out: Final Backscatter, minimal medium, 50 µM, relative to control): 95.5% | activity at 100 µM (Bacillus subtilis 168; Bacillus subtilis, 168, read-out: Final Backscatter, minimal medium, 100 µM, relative to control): 101% | activity at 500 µM (Bacillus subtilis 168; Bacillus subtilis, 168, read-out: Final Backscatter, minimal medium, 500 µM, relative to control): 70% | activity at 5 µM (Bacillus subtilis 168; Bacillus subtilis, 168, read-out: Growth rate, complex medium, 5 µM, relative to control): 91.2% | activity at 50 µM (Bacillus subtilis 168; Bacillus subtilis, 168, read-out: Growth rate, complex medium, 50 µM, relative to control): 97.7% | activity at 100 µM (Bacillus subtilis 168; Bacillus subtilis, 168, read-out: Growth rate, complex medium, 100 µM, relative to control): 118% | activity at 5 µM (Bacillus subtilis 168; Bacillus subtilis, 168, read-out: Growth rate, minimal medium, 5 µM, relative to control): 96.8% | activity at 50 µM (Bacillus subtilis 168; Bacillus subtilis, 168, read-out: Growth rate, minimal medium, 50 µM, relative to control): 113% | activity at 100 µM (Bacillus subtilis 168; Bacillus subtilis, 168, read-out: Growth rate, minimal medium, 100 µM, relative to control): 134% | activity at 500 µM (Bacillus subtilis 168; Bacillus subtilis, 168, read-out: Growth rate, minimal medium, 500 µM, relative to control): 98.7% | Lag Phase (Bacillus subtilis 168; complex medium, 5 µM): 89,8% | Lag Phase (Bacillus subtilis 168; complex medium, 50 µM): 100,0% | Lag Phase (Bacillus subtilis 168; complex medium, 100 µM): 95,4% | Lag Phase (Bacillus subtilis 168; minimal medium, 5 µM): 99,5% | Lag Phase (Bacillus subtilis 168; minimal medium, 50 µM): 108,5% | Lag Phase (Bacillus subtilis 168; minimal medium, 100 µM): 107,8% | Lag Phase (Bacillus subtilis 168; minimal medium, 500 µM): 143,1% | activity at 5 µM ([3]; ATCC13032, read-out: Final Backscatter, complex medium, 5 µM, relative to control): 101% | activity at 50 µM ([3]; ATCC13032, read-out: Final Backscatter, complex medium, 50 µM, relative to control): 105% | activity at 500 µM ([3]; ATCC13032, read-out: Final Backscatter, complex medium, 500 µM, relative to control): 111% | activity at 5 µM ([3]; ATCC13032, read-out: Final Backscatter, minimal medium, 5 µM, relative to control): 102% | activity at 50 µM ([3]; ATCC13032, read-out: Final Backscatter, minimal medium, 50 µM, relative to control): 99.6% | activity at 100 µM ([3]; ATCC13032, read-out: Final Backscatter, minimal medium, 100 µM, relative to control): 101% | activity at 500 µM ([3]; ATCC13032, read-out: Final Backscatter, minimal medium, 500 µM, relative to control): 102% | activity at 5 µM ([3]; ATCC13032, read-out: Growth rate, complex medium, 5 µM, relative to control): 96.2% | activity at 50 µM ([3]; ATCC13032, read-out: Growth rate, complex medium, 50 µM, relative to control): 91.5% | activity at 500 µM ([3]; ATCC13032, read-out: Growth rate, complex medium, 500 µM, relative to control): 102% | activity at 5 µM ([3]; ATCC13032, read-out: Growth rate, minimal medium, 5 µM, relative to control): 101% | activity at 50 µM ([3]; ATCC13032, read-out: Growth rate, minimal medium, 50 µM, relative to control): 99.6% | activity at 100 µM ([3]; ATCC13032, read-out: Growth rate, minimal medium, 100 µM, relative to control): 101% | activity at 500 µM ([3]; ATCC13032, read-out: Growth rate, minimal medium, 500 µM, relative to control): 92.9% | Lag Phase ([3]; complex medium, 5 µM): 98,4% | Lag Phase ([3]; complex medium, 50 µM): 100,0% | Lag Phase ([3]; complex medium, 500 µM): 101,1% | Lag Phase ([3]; minimal medium, 5 µM): 98,7% | Lag Phase ([3]; minimal medium, 50 µM): 102,6% | Lag Phase ([3]; minimal medium, 100 µM): 104,2% | Lag Phase ([3]; minimal medium, 500 µM): 124,3%
